Measurements taken from PMC10535864, “Novel Aminopyrimidine-2,4-diones, 2-Thiopyrimidine-4-ones, and 6-Arylpteridines as Dual-Target Inhibitors of BRD4/PLK1: Design, Synthesis, Cytotoxicity, and Computational Studies” (Pharmaceuticals, 2023).

Tests used:
BRD4 (BD2) = molecular target: T1, BRD4 (BD2) (Homo sapiens, UniProt O60885); experiment: BRD4 inhibitory activity assay (AlphaLISA Bromodomain Assay); assay type: binding; details: for %inh: BRD4 Lab Report;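 on all read-outs here: in vitro inhibition of recombinant BRD4 BD2 bromodomain binding to a BET bromodomain ligand, read by AlphaLISA proximity signal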
T1 construct: BRD4 (BD2) should be thawed on ice; purchased
Protocol: The BRD4 and PLK1 inhibitory assays were carried out in vitro in accordance with the manufacturer’s instructions; BRD4 was assessed using AlphaLISA Bromodomain Assay Protocol [67], and PLK1 kinase was tested using the ADP-Glo™ Kinase Assay Protocol [68], as detailed in the Supplementary file.
The BRD4 and PLK1 inhibitory assays were carried out in vitro in accordance with the manufacturer's instructions; BRD4 was assessed using AlphaLISA Bromodomain Assay Protocol [67], and PLK1 kinase was tested using the ADP-Glo™ Kinase Assay Protocol [68],
The master mixture was prepared as follows: N wells × (2.5 µL 3x BRD Homogeneous Assay Buffer 1 + 1 µL BET Bromodomain Ligand + 1.5 µL H2O). BRD4 (BD2) should be thawed on ice. Simply, the protein-containing tube was spined to recover the full content of the tube after the firstthaw. Both proteins should be aliquoted into single-use aliquots. Immediately, any remaining undiluted protein should be stored in aliquots at -80°C. BRD4 (BD2) was diluted in 1x BRD Homogeneous Assay Buffer 1 at 4 ng/µL. The diluted proteins were kept on ice until they were used. 5 µl of the master mixture is added to each well designated for the “Positive Control”, “Test Inhibitor”, and “Blank”. For the “Substrate Control”, 2.5 µL 3x BRD Homogeneous Assay Buffer 1 + 1 µL Non-acetylated Ligand 1 + 1.5 µL H2O is added. Each “Test Inhibitor” well received 2.5 µL of inhibitor solution, while the “Positive
Control”, “Substrate Control”, and “Blank” wells received 2.5 µL of the same solution without inhibitor (inhibitor buffer). Then, the “Blank” well is filled with 2.5 µL of 1x BRD Homogeneous Assay Buffer 1. After that, GSH
10 µL per well is added, the plate isshaken, and itis incubated at room temperature for 30 minutes. Streptavidin-
10 µL is added per well and incubated at room temperature for further 15 – 30 minutes [67]. The Alpha counts were read using the EnVision® multimode plate reader with the standard Alpha detection settings.

[1] = MTT cytotoxicity assay, normal Vero cells; assay type: cell-based; details: African green monkey, normal Vero cells, MTT
normal Vero cells = experiment: MTT cytotoxicity assay, normal Vero cells; assay type: cell-based; details: Vero, MTT
[2] = system: MDA-MB-231 breast cancer cells; experiment: MTT cytotoxicity assay, MDA-MB-231; assay type: cell-based; details: MDA-MB-231, MTT
Method in brief: (§1)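 Cells seeded at 1 X 10^5 cells/mL and grown 24 h at 37°C to a monolayer, then exposed to two-fold compound dilutions in RPMI with 2% serum, six doses. MTT added for 4 h at 37°C, formazan dissolved in DMSO, OD read at 560 nm minus 620 nm background. IC50 from dose-response.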

[3] = MTT cytotoxicity assay, U-937; assay type: cell-based; details: Homo sapiens, U-937, U937, MTT;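 further: Six-dose MTT colorimetric assay on cell monolayers, formazan absorbance read at 560 nm with 620 nm background removed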
Protocol: (§2) All newly synthetic compounds were tested for cytotoxicity using a six-dose MTT colorimetric assay on three cancer cell lines; namely, breast cancer cells (MDA-MB-231), colorectal adenocarcinoma cells (HT-29) and renal cancer cells (U-937).
(§3) Using a six-dose MTT colorimetric assay [44, 66], all new synthetic compounds were tested for cytotoxicity against three cancer cell lines: MDA-MB-231 breast cancer cells, HT-29 colorectal adenocarcinoma cells, and U-937 renal cancer cells. […] These cell lines were supplied by ATCC (American Type Culture Collection) via the Holding company for biological products and vaccines (VACSERA, Cairo, Egypt). The reference control used was Methotrexate.
(§4) Using a six-dose MTT colorimetric assay [44, 66], allnew synthetic compounds were tested for cytotoxicity against three cancer cell lines: MDA-MB-231 breast cancer cells,HT-29 colorectal adenocarcinoma cells, and U-937 renal
(§5) The cell lines were supplied by ATCC (American Type Culture Collection). The reference control used was Methotrexate. The cytotoxic activities of the examined compounds were quantified by inoculating a 96-well tissue culture plate with 1 X 10^5 cells / mL (100 uL/well) and incubating it at 37°C for 24 hours to develop a complete monolayer sheet. After forming a confluent sheet of cells, the growth medium was decanted from 96-well microtiter plates, and the cell monolayer was washed twice with wash media. Two-fold dilutions of tested samples were made in RPMI medium with 2% serum (maintenance medium), and 0.1 mL of each dilution was tested in different wells, with three wells serving as controls and receiving only maintenance medium. Following that, the plate was incubated at 37°C and examined. Cells were investigated for any physical signs of toxicity, such as partial or complete monolayer loss, rounding, shrinkage, or cell granulation. MTT solution was prepared (5mg/ml in PBS) (BIO BASIC CANADA INC), and 20 uL MTT solution was added to each well. After 5 minutes on a shaking table at150 rpm to thoroughly mix the MTT into the media, it was incubated (37C, 5% CO2) for 4 hours to allow the MTT to be metabolized. Formazan (MTT metabolic product) was resuspended in 200 uL DMSO and shaken at 150 rpm for 5 minutes to thoroughly mix the formazan into the solvent. The optical density was measured at 560 nm, and the background was subtracted at 620 nm. Finally, the IC50 of the test compound in comparison to the reference was calculated using the GraphPad Prism software.

U-937 renal cancer cells = experiment: MTT cytotoxicity assay, U-937; assay type: cell-based; details: MTT; for Toxicity %: U937;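 on all read-outs here: Six-dose MTT colorimetric assay on cell monolayers, formazan absorbance read at 560 nm with 620 nm background removed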
Protocol: as §2, §3, §4, §5

[4] = system: HT-29 colorectal adenocarcinoma cells; experiment: MTT cytotoxicity assay, HT-29; assay type: cell-based; details: MTT
Method in brief: as §1

human recombinant PLK1 = human recombinant PLK1 (Homo sapiens, UniProt P53350); experiment: PLK1 inhibitory activity assay (ADP-Glo Kinase Assay); assay type: biochemical; details: for %inh: PLK1 Lab Report
Protocol: The BRD4 and PLK1 inhibitory assays were carried out in vitro in accordance with the manufacturer’s instructions; BRD4 was assessed using AlphaLISA Bromodomain Assay Protocol, and PLK1 kinase was tested using the ADP-Glo™ Kinase Assay Protocol, as detailed in the Supplementary file. […]
1.2.2. PLK1 inhibitory activity assay
The kinase reaction was performed with active human recombinant PLK1 and combined with the substrate dephosphorylated casein (positive control) using 1 X reaction buffer (40 mM Tris-HCl pH 7.4, 20 mM MgCl2, 0.1 mg/mL BSA, 1 mM DTT) and 20 μM ATP. The reaction was incubated at30°C for 45 minutes. The amount of ATP transferred was calculated using […] reagent from Promega according to the manufacturer’s instruction.
A plate-reading luminometer isused to measure the luminescence. […]

Sequence of human recombinant PLK1 (P53350 whole entry): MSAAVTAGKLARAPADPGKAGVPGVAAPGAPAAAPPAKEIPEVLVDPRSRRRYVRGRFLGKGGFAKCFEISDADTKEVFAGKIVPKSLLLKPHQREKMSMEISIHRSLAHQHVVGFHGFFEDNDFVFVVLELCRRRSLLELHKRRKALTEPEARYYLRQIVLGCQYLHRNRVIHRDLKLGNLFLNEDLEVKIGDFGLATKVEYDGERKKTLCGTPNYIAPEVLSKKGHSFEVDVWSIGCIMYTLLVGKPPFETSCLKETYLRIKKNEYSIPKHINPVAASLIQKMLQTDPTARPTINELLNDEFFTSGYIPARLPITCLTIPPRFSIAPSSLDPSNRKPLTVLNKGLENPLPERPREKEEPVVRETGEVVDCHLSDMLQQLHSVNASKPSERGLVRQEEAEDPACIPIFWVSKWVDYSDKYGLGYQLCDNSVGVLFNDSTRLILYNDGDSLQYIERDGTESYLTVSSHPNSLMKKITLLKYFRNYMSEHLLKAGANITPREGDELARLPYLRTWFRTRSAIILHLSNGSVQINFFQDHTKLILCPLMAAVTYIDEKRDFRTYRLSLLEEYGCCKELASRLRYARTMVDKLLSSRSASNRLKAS

In the case of `Nc1c(/N=C(/CBr)c2ccccc2)c(=O)[nH]c(=O)n1Cc1ccccc1` [Compound 4, (E)-6-Amino-1-benzyl-5-((2-bromo-1-phenylethylidene)amino)pyrimidine-2,4(1H,3H)-dione], the “%inh” value (BRD4 (BD2); conc 0.01 (unit not given)) is reported as 41%, the “%inh” value (BRD4 (BD2); conc 0.1 (unit not given)) is reported as 58% and the “%inh” value (BRD4 (BD2); conc 1 (unit not given)) is reported as 75%. For the same compound, the “%inh” value (BRD4 (BD2); conc 10 (unit not given)) was 91%, the “%inh” value (BRD4 (BD2); conc 100 (unit not given)) was 95% and the IC50 (BRD4 (BD2); mean of three independent experiments, read-out: BRD4 IC50 ± SD) was 29 ± 1 nM. It also gave an IC50 ([1]; mean of three independent experiments ± SD, read-out: In Vitro Cytotoxicity against Normal Cells IC50 Value, Vero Cells) of 1730 ± 30 nM, a viability at 0.312 µM ([1]; Vero, 0.312 uM) of 100% and a viability at 0.625 µM ([1]; Vero, 0.625 uM) of 92.9%. It also gave a viability at 1.25 µM ([1]; Vero, 1.25 uM) of 63.6%, a viability at 2.5 µM ([1]; Vero, 2.5 uM) of 23.6% and a viability at 5 µM ([1]; Vero, 5 uM) of 6.63%. The viability at 10 µM ([1]; Vero, 10 uM) was 2.28%, the Toxicity % (normal Vero cells; 0.312 uM) was 0% and the Toxicity % (normal Vero cells; 0.625 uM) was 7.106%. The Toxicity % (normal Vero cells; 1.25 uM) was 36.41%, the Toxicity % (normal Vero cells; 2.5 uM) was 76.37% and the Toxicity % (normal Vero cells; 5 uM) was 93.37%. The Toxicity % (normal Vero cells; 10 uM) was 97.72%, the IC50 ([2]; Homo sapiens, mean of three independent experiments ± SD, read-out: IC50 Value MDA-MB-231) was 780 ± 10 nM and the viability at 0.312 µM ([2]; Homo sapiens, 0.312 uM) was 99.7%. For the same compound, the viability at 0.625 µM ([2]; Homo sapiens, 0.625 uM) was 57.8%, the viability at 1.25 µM ([2]; Homo sapiens, 1.25 uM) was 7.14% and the viability at 2.5 µM ([2]; Homo sapiens, 2.5 uM) was 8.02%. The viability at 5 µM ([2]; Homo sapiens, 5 uM) was 5.1%, the viability at 10 µM ([2]; Homo sapiens, 10 uM) was 4.7% and the Toxicity % ([2]; 0.312 uM) was 0.3103%. For the same compound, the Toxicity % ([2]; 0.625 uM) was 42.24%, the Toxicity % ([2]; 1.25 uM) was 92.86% and the Toxicity % ([2]; 2.5 uM) was 91.98%. For the same compound, the Toxicity % ([2]; 5 uM) was 94.9%, the Toxicity % ([2]; 10 uM) was 95.3% and the viability at 0.312 µM ([3]; 0.312 uM) was 97.3%. It also gave a viability at 0.625 µM ([3]; 0.625 uM) of 83%, a viability at 1.25 µM ([3]; 1.25 uM) of 24.8% and a viability at 2.5 µM ([3]; 2.5 uM) of 8.01%. It also gave a viability at 5 µM ([3]; 5 uM) of 7.46%, a viability at 10 µM ([3]; 10 uM) of 7.9% and an IC50 (U-937 renal cancer cells; Homo sapiens, U-937, mean of three independent experiments ± SD, read-out: IC50 Value U-937) of 950 nM. The Toxicity % (U-937 renal cancer cells; 0.312 uM) was 2.669%, the Toxicity % (U-937 renal cancer cells; 0.625 uM) was 16.99% and the Toxicity % (U-937 renal cancer cells; 1.25 uM) was 75.22%. For the same compound, the Toxicity % (U-937 renal cancer cells; 2.5 uM) was 91.99%, the Toxicity % (U-937 renal cancer cells; 5 uM) was 92.54% and the Toxicity % (U-937 renal cancer cells; 10 uM) was 92.1%. The Toxicity % ([4]; HT29, 0.312 uM) was 0.1292%, the Toxicity % ([4]; HT29, 0.625 uM) was 48.06% and the Toxicity % ([4]; HT29, 1.25 uM) was 92.12%. For the same compound, the Toxicity % ([4]; HT29, 2.5 uM) was 92.46%, the Toxicity % ([4]; HT29, 5 uM) was 92.76% and the Toxicity % ([4]; HT29, 10 uM) was 93.84%. It also gave a viability at 0.312 µM ([4]; Homo sapiens, HT-29, HT29, 0.312 uM) of 99.9%, a viability at 0.625 µM ([4]; Homo sapiens, HT-29, HT29, 0.625 uM) of 51.9% and a viability at 1.25 µM ([4]; Homo sapiens, HT-29, HT29, 1.25 uM) of 7.88%. The viability at 2.5 µM ([4]; Homo sapiens, HT-29, HT29, 2.5 uM) was 7.54%, the viability at 5 µM ([4]; Homo sapiens, HT-29, HT29, 5 uM) was 7.24% and the viability at 10 µM ([4]; Homo sapiens, HT-29, HT29, 10 uM) was 6.16%. For the same compound, the IC50 ([4]; Homo sapiens, HT-29, mean of three independent experiments ± SD, read-out: IC50 Value HT-29) was 760 nM, the “%inh” value (human recombinant PLK1; conc 0.01 (unit not given)) was 34% and the “%inh” value (human recombinant PLK1; conc 0.1 (unit not given)) was 46%. The “%inh” value (human recombinant PLK1; conc 1 (unit not given)) was 70%, the “%inh” value (human recombinant PLK1; conc 10 (unit not given)) was 88% and the “%inh” value (human recombinant PLK1; conc 100 (unit not given)) was 95%. It also gave an IC50 (human recombinant PLK1; mean of three independent experiments, read-out: PLK1 IC50 ± SD) of 94 ± 4 nM.
